Assay results as given in ChEMBL document CHEMBL1156034, “The first pharmacophore model for potent NF-kappaB inhibitors” (Bioorg Med Chem Lett, 2009).
Where a SMILES comes first, the peptide text is derived from it. The star is where a group is joined. Cbz = O=C(OCc1ccccc1)*

Test: Inhibition of NF-kappaB activation

| SMILES | IC50 [nM] |
| --- | --- |
| Oc1ccc2ncnc(NCCc3ccc(Cl)cc3)c2c1 | 313 |
| O=[N+]([O-])c1ccc2ncnc(NCCc3ccc(Cl)cc3)c2c1 | 1520 |
| Nc1ccc2c(NCCc3ccc(Cl)cc3)ncnc2c1 | 2200 |
| Clc1ccc(CCNc2ncnc3ccccc23)cc1 | 630 |
| Clc1ccc(CCNc2ncnc3ccc(Br)cc23)cc1 | 851 |
| O=[N+]([O-])c1cc2c(NCCc3ccc(Cl)cc3)ncnc2cc1Cl | 9060 |
| O=C1c2ccc(O)cc2C(=O)N1c1c(Br)cccc1Br | 430 |
| Cc1ccc(S(=O)(=O)Nc2cccc3cccnc23)c([N+](=O)[O-])c1 | 2100 |
| Nc1ccccc1S(=O)(=O)Nc1cccc2cccnc12 | 2000 |
| Cc1ccc2cccc(NS(=O)(=O)c3ccccc3[N+](=O)[O-])c2n1 | 3800 |
| Cc1ccc2cccc(NS(=O)(=O)c3ccc(Cl)s3)c2n1 | 1000 |
| Cc1ccc2cccc(NS(=O)(=O)c3ccc(Br)s3)c2n1 | 1400 |
| O=S(=O)(Nc1cccc2cccnc12)c1ccc(Cl)s1 | 1300 |
| Cc1ccc2cccc(NS(=O)(=O)c3ccccc3N)c2n1 | 2800 |
| COc1cc(NS(=O)(=O)c2ccc(C)cc2[N+](=O)[O-])c2ncccc2c1 | 2100 |
| COc1cnc2c3c(ccc2c1)-c1ccccc1S(=O)(=O)N3 | 2500 |
| O=[N+]([O-])c1ccccc1S(=O)(=O)Nc1cccc2cccnc12 | 3200 |
| O=S1(=O)Nc2c(ccc3cccnc23)-c2cc(F)ccc21 | 1700 |
| COc1ccc(S(=O)(=O)Nc2cccc3ccc(C)nc23)c([N+](=O)[O-])c1 | 1000 |
| O=S1(=O)Nc2c(ccc3cccnc23)-c2cc(C(F)(F)F)ccc21 | 1000 |
| COc1ccc2c(c1)-c1ccc3ccc(C)nc3c1NS2(=O)=O | 2500 |
| Cc1ccc2ccc3c(c2n1)NS(=O)(=O)c1ccc(C(F)(F)F)cc1-3 | 1200 |
| O=S(=O)(Nc1cccc2cccnc12)c1ccc(Br)s1 | 1100 |
| Cc1ccc2ccc3c(c2n1)NS(=O)(=O)c1ccc(O)cc1-3 | 10000 |
| COc1ccc2c(c1)-c1ccc3cccnc3c1NS2(=O)=O | 1000 |
| O=[N+]([O-])c1cc(C(F)(F)F)ccc1S(=O)(=O)Nc1cccc2cccnc12 | 3700 |
| c1ccc(CCCNc2ncnc3ccccc23)cc1 | 2380 |
| O=S1(=O)Nc2c(ccc3cccnc23)-c2ccccc21 | 1000 |

| SMILES | IC50 [nM] |
| --- | --- |
| Cc1ccc([N+](=O)[O-])cc1S(=O)(=O)Nc1cccc2cccnc12 | 1600 |
| Cc1ccc2ncnc(NCCc3ccc(Cl)cc3)c2c1 | 730 |
| Nc1ccc2ncnc(NCCc3cccnc3)c2c1 | 8270 |
| Nc1ccc2ncnc(NCCc3ccc(O)cc3)c2c1 | 3640 |
| CCOc1ccc(CCNc2ncnc3ccc(N)cc23)cc1 | 21 |
| CC(C)Oc1ccc(CCNc2ncnc3ccc(N)cc23)cc1 | 40 |
| Clc1ccc(Nc2ncnc3ccccc23)cc1 | > 10000 |
| Nc1ccc2ncnc(NCCc3ccc(Br)cc3)c2c1 | 207 |
| CCCCCCOc1ccc(CCNc2ncnc3ccc(N)cc23)cc1 | 4 |
| Nc1ccc2ncnc(NCCc3cccc(Cl)c3)c2c1 | 389 |
| COc1ccc(CCNc2ncnc3ccc(N)cc23)cc1 | 90 |
| Nc1ccc2ncnc(NCCN3CCCCC3)c2c1 | > 10000 |
| Nc1ccc2ncnc(NCCc3ccc(OCc4ccccn4)cc3)c2c1 [listing 2 of 2 here] | 14 |
| Clc1ccc(CCCNc2ncnc3ccccc23)cc1 | 1400 |
| COC(=O)C1[C@@H](O)[C@@]2(O)c3c(cc4c(c3OC)OCO4)O[C@@]2(c2ccc(OC)cc2)[C@@H]1c1ccccc1 (some centres not stated) | 243 |
| Nc1ccc2ncnc(NCCc3ccc(OCc4ccc5ccccc5n4)cc3)c2c1 | 93 |
| Clc1ccc(CCNc2ncnc3ccc(Oc4ccccc4)cc23)cc1 | 7340 |
| Nc1ccc2ncnc(NCCc3ccccc3)c2c1 | 311 |
| Nc1ccc2ncnc(NCCc3ccc(S(N)(=O)=O)cc3)c2c1 | > 10000 |
| Nc1ccc2ncnc(NCCN3CCCC3)c2c1 | 3690 |
| COC(=O)C1[C@@H](O)[C@@]2(O)c3c(OC)cc(OC)cc3O[C@@]2(c2ccc3c(c2)OCO3)[C@@H]1c1ccccc1 (some centres not stated) | 319 |
| COC(=O)C1[C@@H](O)[C@@]2(O)c3c(OC)cc(OC)cc3O[C@@]2(c2ccc(OC)cc2)[C@@H]1c1ccccc1 (some centres not stated) | 197 |
| Cc1csc2ncnc(NC3Cc4ccc(C(=O)N5CCOCC5)cc4C3)c12 (configuration not stated) | 38 |
| CC(C)c1cccc(C(C)C)c1N1C(=O)c2ccc(N)cc2C1=O | 29500 |
| COc1ccc([C@@]23Oc4cc(OC)cc(OC)c4[C@]2(O)[C@H](O)[C@H](C(N)=O)[C@H]3c2ccccc2)cc1 [DIDESMETHYLROCAGLAMIDE] | 44 |
| CC(C)C[C@@H](C=O)NC(=O)[C@H](CC(C)C)NC(=O)[C@H](CC(C)C)NC(=O)OCc1ccccc1 [MG-132] (Cbz-Leu-Leu-Leu-aldehyde) | 715 |
| COc1ccc([C@@]23Oc4cc(OC)cc(OC)c4[C@]2(O)[C@H](O)C[C@H]3c2ccccc2)cc1 [ROCAGLAOL] | 499 |

Next, values leading:

| IC50 [nM] | SMILES |
| --- | --- |
| 1830 | Clc1ccc(CNc2ncnc3ccccc23)cc1 |
| 344 | Clc1ccc(CCNc2ncnc3ccc(Cl)cc23)cc1 |
| 1760 | O=[N+]([O-])c1ccc2c(NCCc3ccc(Cl)cc3)ncnc2c1 |
| 176 | Nc1ccc2ncnc(NCCc3ccc(Cl)cc3)c2c1 |
| 1000 | COc1cc(NS(=O)(=O)c2ccc(C)cc2N)c2ncccc2c1 |
| 3600 | O=S(=O)(Nc1cccc2cccnc12)c1cccs1 |
| 1100 | Cc1ccc2cccc(NS(=O)(=O)c3ccc(C(F)(F)F)cc3[N+](=O)[O-])c2n1 |
| 600 | Cc1ccc2c(c1)-c1ccc3cccnc3c1NS2(=O)=O |
| 1200 | COc1cc2cccnc2c2c1-c1cc(C)ccc1S(=O)(=O)N2 |
| 900 | COc1cc2ccc(C)nc2c2c1-c1cc(C)ccc1S(=O)(=O)N2 |
| 530 | CC(C)c1cccc(C(C)C)c1N1C(=O)c2ccc(O)cc2C1=O |
| 900 | Cc1ccc2cccc(NS(=O)(=O)c3cccc([N+](=O)[O-])c3)c2n1 |
| 1100 | O=S1(=O)Nc2c(ccc3cccnc23)-c2cc(Cl)ccc21 |
| 11 | Nc1ccc2ncnc(NCCc3ccc(Oc4ccccc4)cc3)c2c1 |
| 1500 | O=[N+]([O-])c1ccc(S(=O)(=O)Nc2cccc3cccnc23)cc1 |
| 40 | C#CCOc1ccc(CCNc2ncnc3ccc(N)cc23)cc1 |
| 12 | C=CCOc1ccc(CCNc2ncnc3ccc(N)cc23)cc1 |
| 20 | CCCOc1ccc(CCNc2ncnc3ccc(N)cc23)cc1 |
| > 10000 | Nc1ccc2ncnc(NCCN3CCOCC3)c2c1 |

| IC50 [nM] | SMILES |
| --- | --- |
| 685 | Nc1ccc2ncnc(NCCC3CCCCC3)c2c1 |
| 210 | Cc1ccc(CCNc2ncnc3ccc(N)cc23)cc1 |
| 2 | CCCCCOc1ccc(CCNc2ncnc3ccc(N)cc23)cc1 |
| 155 | COc1ccccc1CCNc1ncnc2ccc(N)cc12 |
| > 10000 | Clc1ccc(CCNc2nccc3ccccc23)cc1 |
| 12 | Nc1ccc2ncnc(NCCc3ccc(OCc4ccccn4)cc3)c2c1 [listing 1 of 2 here] |
| 574 | Nc1ccc2ncnc(NCCc3ccc(F)cc3)c2c1 |
| 4560 | CC(=O)Nc1ccc2ncnc(NCCc3ccc(Cl)cc3)c2c1 |
| 7330 | NC(=O)c1ccc(CCNc2ncnc3ccc(N)cc23)cc1 |
| 1390 | Clc1ccc(CCNc2ccnc3ccccc23)cc1 |
| 210 | COc1cccc(CCNc2ncnc3ccc(N)cc23)c1 |
| 5980 | CC(=O)Nc1ccc(CCNc2ncnc3ccc(N)cc23)cc1 |
| 429 | Nc1cc2c(NCCc3ccc(Cl)cc3)ncnc2cc1Cl |
| > 10000 | Clc1ccc(CCNc2nncc3ccccc23)cc1 |
| 11 | CCCCOc1ccc(CCNc2ncnc3ccc(N)cc23)cc1 |
| 254 | Nc1ccc2ncnc(NCCc3ccccc3Cl)c2c1 |
| 2590 | CN(C)C(=O)c1ccc(CCNc2ncnc3ccc(N)cc23)cc1 |
| 4950 | CC(C)c1cccc(C(C)C)c1N1C(=O)c2cccc(O)c2C1=O |
